Assay results reported in patent US10588839B2, “Method of shaping hair” (Conopco, Inc., priority 2013, dated 2020).

Columns and labels:
[1] = Volume of hair switches by image analysis after soaking, ironing at 200° C. and washing (Example 1)
Procedure: Dark brown wavy #6 European hair switches were soaked for 30 minutes in solutions of 2% glyceraldehyde at its natural or spontaneous pH.
All switches were combed straight and were dried in drying cabinets. When dry the switches were ironed with 7 passes using straighteners at 200° C.
The switches were subsequently washed after 3 days with base shampoo and combed straight and dried in drying cabinets.
When dry the switches were combed and pictures taken. The volumes of the switches were measured using an image analysis kit.
If the switches are visually straight then the volume of the switches (actually the projection of the volume in mm^2 on to an image plane) is a measure of the straightness benefits of the treatment.

[2] = Volume of hair switches by image analysis after soaking and combing, no heat treatment (Example 3); conditions: 30 min soak; for volume of treated hair switches: combed straight, dried; for % benefit: water as control
Source text: Control switches were soaked in water.
When dry the switches were combed straight and pictures taken.

Row | Structure (SMILES) | % benefit after ironing + 1 wash ([1]; 2% glyceraldehyde solution, 30 min soak, 7 iron passes at 200° C., 1 wash, versus control) [%] | % benefit after ironing + 2 washes ([1]; 2% glyceraldehyde solution, 30 min soak, 7 iron passes at 200° C., 2 washes, versus control) [%] | Volume of treated hair switches after ironing + 2 washes ([1]; 2% glyceraldehyde solution, 30 min soak, 7 iron passes at 200° C., 3 day gap between washings) [mm^2] | Volume of treated hair switches after ironing + 1 wash ([1]; 2% glyceraldehyde solution, 30 min soak, 7 iron passes at 200° C., washed after 3 days with base shampoo) [mm^2] | straightness benefit (in words) ([1]; with heat treatment, after washing) | volume of treated hair switches [2] [mm^2] | % benefit [2] [%]
1 | O=CC(O)CO (stereo not drawn) [Glyceraldehyde, glyceraldehyde] | 26.4 | 11.3 | 11191.17 | 10927.15 | durable straightness benefits | 12458 | 21.6
2 | NCCCC[C@H](N)C(=O)O [2% Lysine, lysine] | – | – | – | – | – | 9975 | 37.2
